Test results taken from patent US20150125889A1, “IN VITRO DETECTION OF MICROORGANISMS WITH AZOREDUCTASE ACTIVITY” (BIOMÉRIEUX, priority 2012, published 2015).

Key:
Type in all cases: cell-based
[1] = test system: 10 strains representing 10 species of microorganisms; test: Reduction of azo substrates, whole panel of Example 1; conditions: substrate 35 mg/l, 35° C., 24 hours
Procedure: Reduction of the “azo” function of the substrates listed in Table I by the species listed in Table II, each species being represented by a strain, is tested in a microtitration plate.
The reaction medium consists of: • Trypcase soya broth • Substrate 35 mg/l • 0.5 MacFarland inoculum
The reduction of the substrate and the growth of the microorganisms are monitored using an Infinite® M200 Tecan microplate reader at 35° C. over 24 hours.
The growth is monitored by the absorbance at 660 nm and the reduction of the substrates by absorbance and fluorescence at the specific wavelengths indicated in Table III.
The substrate is considered as reduced by the microorganisms when the substrate is decolourized (monitored by the decrease in absorbance) (Decol) and/or when the fluorescence of the substrate is multiplied by 2 relative to the base fluorescence of a substrate-free control (Fluo). The growth is indicated by Co. The symbol “+” means good growth/decolourization/significant increase in fluorescence. The symbol “+/−” means difficult growth. The symbol “−” means that there is no growth/decolourization/significant increase in fluorescence. RED indicates whether the substrate is reduced (Y) or not (N).

Staphylococcus aureus = test: Reduction of azo substrates over 24 hours at 35° C., microtitration plate (Example 1); set-up: key to RED (substrate reduced or not): RED indicates whether the substrate is reduced (Y) or not (N); RED indicates whether the substrate is reduced (Y) or not (N); key to Co (growth, absorbance at 660 nm) / Decol (substrate decolourized, decrease in absorbance) / Fluo (fluorescence multiplied by 2 relative to substrate-free control): The symbol “+” means good growth/decolourization/significant increase in fluorescence; The symbol “+/−” means difficult growth; The symbol “−” means that there is no growth/decolourization/significant increase in fluorescence; conditions: S. aureus, substrate 35 mg/l
Procedure, shortened: (§1)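 Reduction is called when the dye decolourizes or its fluorescence reaches twice the base level of a substrate-free control. Cultures (one strain per species, 0.5 McFarland) grow in Trypcase soya broth containing 35 mg/l substrate for 24 hours at 35° C.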

Kocuria rosea = test: as above; set-up: key to RED (substrate reduced or not): RED indicates whether the substrate is reduced (Y) or not (N); RED indicates whether the substrate is reduced (Y) or not (N); key to Co (growth, absorbance at 660 nm) / Decol (substrate decolourized, decrease in absorbance) / Fluo (fluorescence multiplied by 2 relative to substrate-free control): The symbol “+” means good growth/decolourization/significant increase in fluorescence; The symbol “+/−” means difficult growth; The symbol “−” means that there is no growth/decolourization/significant increase in fluorescence; conditions: K. rosea, substrate 35 mg/l
Procedure, shortened: as §1

Pseudomonas aeruginosa = test: as above; set-up: key to RED (substrate reduced or not): RED indicates whether the substrate is reduced (Y) or not (N); RED indicates whether the substrate is reduced (Y) or not (N); key to Co (growth, absorbance at 660 nm) / Decol (substrate decolourized, decrease in absorbance) / Fluo (fluorescence multiplied by 2 relative to substrate-free control): The symbol “+” means good growth/decolourization/significant increase in fluorescence; The symbol “+/−” means difficult growth; The symbol “−” means that there is no growth/decolourization/significant increase in fluorescence; conditions: P. aeruginosa, substrate 35 mg/l
Procedure, shortened: as §1

[2] = test system: 45 strains representing 25 species of microorganisms; test: Reduction of 3 azo substrates, whole panel of Example 2; conditions: substrate 35 mg/l, 35° C., 24 hours
Procedure: (§2) The reduction of the “azo” function of the substrates listed in Table V by the 25 species listed in Table VI, each being represented by one or two strains, is tested in a microtitration plate. The reaction medium consists of: • Trypcase soya broth • Substrate 35 mg/l • 0.5 MacFarland inoculum The reduction of the substrate and the growth of the microorganisms are monitored using an Infinite® M200 Tecan microplate reader at 35° C. over 24 hours. The growth is monitored by the absorbance at 660 nm, and the reduction of the substrates by absorbance and fluorescence at the wavelengths indicated in Table III above. The substrate is considered as reduced by the microorganisms when the fluorescence is multiplied by 2 relative to the base fluorescence of the reaction medium.

Citrobacter koseri = test: Reduction of 3 azo substrates over 24 hours at 35° C. (Example 2); set-up: key: The strains that reduce the substrate are marked with a “+”; the strains that do not reduce the substrate are marked with a “−”; conditions: substrate 35 mg/l
Procedure: as §2

Saccharomyces cerevisiae = test: as above; set-up: key: The strains that reduce the substrate are marked with a “+”; the strains that do not reduce the substrate are marked with a “−”; conditions: substrate 35 mg/l
Procedure: as §2

Streptococcus pyogenes = test: as above; set-up: key: The strains that reduce the substrate are marked with a “+”; the strains that do not reduce the substrate are marked with a “−”; conditions: substrate 35 mg/l
Procedure: as §2

[3] = test system: Staphylococcus haemolyticus; test: as above; set-up: key: The strains that reduce the substrate are marked with a “+”; the strains that do not reduce the substrate are marked with a “−”; conditions: substrate 35 mg/l
Procedure: as §2

Staphylococcus hominis = test: as above; set-up: key: The strains that reduce the substrate are marked with a “+”; the strains that do not reduce the substrate are marked with a “−”; conditions: substrate 35 mg/l
Procedure: as §2

Compound	reduction by the microorganisms tested (Table IV) [1]	Co (growth, absorbance at 660 nm) (Staphylococcus aureus)	Decol (substrate decolourized, decrease in absorbance) (Staphylococcus aureus)	Fluo (fluorescence multiplied by 2 relative to substrate-free control) (Staphylococcus aureus)	RED (substrate reduced or not) (Staphylococcus aureus)	Co (growth, absorbance at 660 nm) (Kocuria rosea)	Decol (substrate decolourized, decrease in absorbance) (Kocuria rosea)	Fluo (fluorescence multiplied by 2 relative to substrate-free control) (Kocuria rosea)	Co (growth, absorbance at 660 nm) (Pseudomonas aeruginosa)	Decol (substrate decolourized, decrease in absorbance) (Pseudomonas aeruginosa)	Fluo (fluorescence multiplied by 2 relative to substrate-free control) (Pseudomonas aeruginosa)	RED (substrate reduced or not) (Pseudomonas aeruginosa)	reduction by the species tested (Table VII) [2]	reduction of the substrate by the strain (fluorescence multiplied by 2) (Citrobacter koseri)	reduction of the substrate by the strain (fluorescence multiplied by 2) (Saccharomyces cerevisiae)	reduction of the substrate by the strain (fluorescence multiplied by 2) (Streptococcus pyogenes)	reduction of the substrate by the strain (fluorescence multiplied by 2) [3]	reduction of the substrate by the strain (fluorescence multiplied by 2) (Staphylococcus hominis)	RED (substrate reduced or not) (Kocuria rosea)
CN(C)c1ccc(N=Nc2ccc(S(=O)(=O)[O-])cc2)cc1.[Na+] [Methyl orange]	reduced only by E. faecalis	+	−	−	N	−	−	−	+	−	−	N							
O=S(=O)([O-])c1ccc(N=Nc2c(O)ccc3ccccc23)cc1.[Na+] [Orange II]		+	−	−	N	−	−	−	+	−	−	N	reduced mainly by E. faecalis	−	−	−	−	−	
O=C(O)c1cc(/N=N/c2ccc(-c3nc4ccccc4s3)cc2)ccc1O [BF45, 2-Phenyl-benzothiazole-4′-azo-4″- hydroxybenzene-3″-carboxylic acid]		+	+	+	Y	+	−	+	+	−	−	N							Y
CN(C)c1ccc(/N=N/c2ccccc2C(=O)O)cc1 [Methyl red]	can be reduced by all the microorganisms tested	+	+	+	Y	+/−	+/−	+	+	+/−	+	Y							Y
O=C([O-])C1=NN(c2ccc(S(=O)(=O)[O-])cc2)C(=O)C1/N=N/c1ccc(S(=O)(=O)[O-])cc1.[Na+].[Na+].[Na+] (centres unmarked) [Tartrazine]		+	−	−	N	−	−	−	+	−	−	N	reduced mainly by E. faecalis	−	−	−	−	−	
